{"source": "patent US8501752B2", "about": "“Methods for treating cancer and other pathological proliferating disorders by inhibiting mitosis using pyrrolo[2,3-d]pyrimidines” (Duquesne University of the Holy Ghost, priority 2005, dated 2013)", "key": {"CCRF-CEM": {"test_system": "CCRF-CEM", "test": "NCI IVCLSP growth inhibition (SRB), CCRF-CEM", "format": "cell-based, human", "conditions": "48 h drug incubation", "method": "(§1) FIG. 1 presents nine compounds that were tested using the National Cancer Institute (NCI) 60 human tumor cell lines. The cells lines, which represent leukemia, melanoma, and cancers of the lung, colon, brain, ovary, breast, prostate, and kidney, are listed in Table 1.\n(§2) Compounds 1-9 were tested according to the NCI Developmental Therapeutics Program (DTP) In Vitro Cell Line Screening Project (IVCLSP). […] Methodology for testing under the IVCLSP is as follows: The human tumor cell lines of the cancer screening panel are grown in RPMI 1640 medium containing 5% fetal bovine serum and 2 mM L-glutamine. […]\n(§3) Following drug addition, the plates are incubated for an additional 48 h at 37° C., 5% CO2, 95% air, and 100% relative humidity. […] Bound stain is subsequently solubilized with 10 mM trizma base, and the absorbance is read on an automated plate reader at a wavelength of 515 nm. […] Using the seven absorbance measurements [time zero, (Tz), control growth, (C), and test growth in the presence of drug at the five concentration levels (Ti)], the percentage growth is calculated at each of the drug concentrations levels. Percentage growth inhibition is calculated as: [(Ti−Tz)/(C−Tz)]×100 for concentrations for which Ti>/=Tz [(Ti−Tz)/Tz]×100 for concentrations for which Ti<Tz.\n(§4) Three dose response parameters are calculated for each experimental agent. […]"}, "MOLT-4": {"test_system": "MOLT-4", "test": "NCI IVCLSP growth inhibition (SRB), MOLT-4", "format": "cell-based, human", "conditions": "48 h drug incubation", "method": "as §1, §2, §3, §4"}, "A549/ATCC": {"test_system": "A549/ATCC", "test": "NCI IVCLSP growth inhibition (SRB), A549/ATCC", "format": "cell-based, human", "conditions": "48 h drug incubation", "method": "as §1, §2, §3, §4"}, "NCI-H322M": {"test_system": "NCI-H322M", "test": "NCI IVCLSP growth inhibition (SRB), NCI-H322M", "format": "cell-based, human", "conditions": "48 h drug incubation", "method": "as §1, §2, §3, §4"}, "COLO 205": {"test_system": "COLO 205", "test": "NCI IVCLSP growth inhibition (SRB), COLO 205", "format": "cell-based, human", "conditions": "48 h drug incubation", "method": "as §1, §2, §3, §4"}, "OVCAR-4": {"test_system": "OVCAR-4", "test": "NCI IVCLSP growth inhibition (SRB), OVCAR-4", "format": "cell-based, human", "conditions": "48 h drug incubation", "method": "as §1, §2, §3, §4"}, "SK-OV-3": {"test_system": "SK-OV-3", "test": "NCI IVCLSP growth inhibition (SRB), SK-OV-3", "format": "cell-based, human", "conditions": "48 h drug incubation", "method": "as §1, §2, §3, §4"}, "A498": {"test_system": "A498", "test": "NCI IVCLSP growth inhibition (SRB), A498", "format": "cell-based, human", "conditions": "A498; 48 h drug incubation, SRB", "method": "as §1, §2, §3, §4"}, "ACHN": {"test_system": "ACHN", "test": "NCI IVCLSP growth inhibition (SRB), ACHN", "format": "cell-based, human", "conditions": "48 h drug incubation", "method": "as §1, §2, §3, §4"}, "HCT-116": {"test_system": "HCT-116", "test": "NCI IVCLSP growth inhibition (SRB), HCT-116", "format": "cell-based, human", "conditions": "48 h drug incubation", "method": "as §1, §2, §3, §4"}, "HT29": {"test_system": "HT29", "test": "NCI IVCLSP growth inhibition (SRB), HT29", "format": "cell-based, human", "conditions": "48 h drug incubation", "method": "as §1, §2, §3, §4"}, "SNB-19": {"test_system": "SNB-19", "test": "NCI IVCLSP growth inhibition (SRB), SNB-19", "format": "cell-based, human", "conditions": "48 h drug incubation", "method": "as §1, §2, §3, §4"}, "U251": {"test_system": "U251", "test": "NCI IVCLSP growth inhibition (SRB), U251", "format": "cell-based, human", "conditions": "48 h drug incubation", "method": "as §1, §2, §3, §4"}, "LOX IMVI": {"test_system": "LOX IMVI", "test": "NCI IVCLSP growth inhibition (SRB), LOX IMVI", "format": "cell-based, human", "conditions": "48 h drug incubation", "method": "as §1, §2, §3, §4"}, "RXF 393": {"test_system": "RXF 393", "test": "NCI IVCLSP growth inhibition (SRB), RXF 393", "format": "cell-based, human", "conditions": "48 h drug incubation", "method": "as §1, §2, §3, §4"}, "DU-145": {"test_system": "DU-145", "test": "NCI IVCLSP growth inhibition (SRB), DU-145", "format": "cell-based, human", "conditions": "48 h drug incubation", "method": "as §1, §2, §3, §4"}, "NCI/ADR-RES": {"test_system": "NCI/ADR-RES", "test": "NCI IVCLSP growth inhibition (SRB), NCI/ADR-RES", "format": "cell-based, human", "conditions": "48 h drug incubation", "method": "as §1, §2, §3, §4"}, "[1]": {"test_system": "NCI 60 human tumor cell lines", "test": "NCI IVCLSP growth inhibition, whole panel (text summaries)", "format": "cell-based", "method": "as §1\nCompounds 1-9 were tested according to the NCI Developmental Therapeutics Program (DTP) In Vitro Cell Line Screening Project (IVCLSP). […] Methodology for testing under the IVCLSP is as follows: The human tumor cell lines of the cancer screening panel are grown in RPMI 1640 medium containing 5% fetal bovine serum and 2 mM L-glutamine. For a typical screening experiment, cells are inoculated into 96 well microtiter plates in 100 μL at plating densities ranging from 5,000 to 40,000 cells/well depending on the doubling time of individual cell lines. After cell inoculation, the microtiter plates are incubated at 37° C., 5% CO2, 95% air and 100% relative humidity for 24 h prior to addition of experimental drugs.\nAfter 24 h, two plates of each cell line are fixed in situ with TCA, to represent a measurement of the cell population for each cell line at the time of drug addition (Tz). Experimental drugs are solubilized in dimethyl sulfoxide at 400-fold the desired final maximum test concentration and stored frozen prior to use. At the time of drug addition, an aliquot of frozen concentrate is thawed and diluted to twice the desired final maximum test concentration with complete medium containing 50 μg/ml gentamicin. Additional four, 10-fold or ½ log serial dilutions are made to provide a total of five drug concentrations plus control. Aliquots of 100 μl of these different drug dilutions are added to the appropriate microtiter wells already containing 100 μl of medium, resulting in the required final drug concentrations.\nFollowing drug addition, the plates are incubated for an additional 48 h at 37° C., 5% CO2, 95% air, and 100% relative humidity. For adherent cells, the assay is terminated by the addition of cold TCA. Cells are fixed in situ by the gentle addition of 50 μl of cold 50% (w/v) TCA (final concentration, 10% TCA) and incubated for 60 minutes at 4° C. The supernatant is discarded, and the plates are washed five times with tap water and air dried. Sulforhodamine B (SRB) solution (100 μl) at 0.4% (w/v) in 1% acetic acid is added to each well, and plates are incubated for 10 minutes at room temperature. After staining, unbound dye is removed by washing five times with 1% acetic acid and the plates are air dried. Bound stain is subsequently solubilized with 10 mM trizma base, and the absorbance is read on an automated plate reader at a wavelength of 515 nm. For suspension cells, the methodology is the same except that the assay is terminated by fixing settled cells at the bottom of the wells by gently adding 50 μl of 80% TCA (final concentration, 16% TCA). Using the seven absorbance measurements [time zero, (Tz), control growth, (C), and test growth in the presence of drug at the five concentration levels (Ti)], the percentage growth is calculated at each of the drug concentrations levels. Percentage growth inhibition is calculated as: [(Ti−Tz)/(C−Tz)]×100 for concentrations for which Ti>/=Tz [(Ti−Tz)/Tz]×100 for concentrations for which Ti<Tz.\nThree dose response parameters are calculated for each experimental agent. […] The drug concentration resulting in total growth inhibition (TGI) is calculated from Ti=Tz. […]"}, "p53": {"test_system": "p53", "test": "Western blot, p53 expression in MCF-7 cells", "format": "cell-based, human", "conditions": "24 hours, various concentrations", "method": "To further characterize the cell cycle effects of Compound 1 on human tumor cells, MCF-7 cells were treated for 24 hours with various concentrations of Compound 1, vinblastine, or TAXOL (paclitaxel). Cells were then harvested, lysed, and analyzed for levels of expression of p53 and WAF1 by Western Blot analyses. […] Compound 1 is identified as “149” in these figures. […] None of these treatments affected the expression of bcl-2 or P-tubulin in the MCF-7 cells."}, "MCF-7 cells": {"test_system": "MCF-7 cells", "test": "Cytotoxicity, drug-sensitive MCF-7 cells", "conditions": "mean ± SEM for 3 experiments", "from_the_text": "(§5) These cell lines are resistant to anticancer drugs due to overexpression of the transport proteins P-glycoprotein or MRP1."}, "MCF-7/VP cells": {"test_system": "MCF-7/VP cells", "test": "Cytotoxicity, MCF-7/VP cells that overexpress MRP1", "conditions": "for IC50: mean ± SEM for 3 experiments", "from_the_text": "as §5"}}, "note": "“Also recorded” adds a separate entry of the source. Where two headings read alike, the source gives them in different places."}
{"smiles": "COc1cc(CCc2cn(Cc3ccccc3)c3nc(N)nc(C)c23)cc(OC)c1OC", "note": "[Compound 1]", "values": [{"measurement": "GI50", "setting": "CCRF-CEM", "value": 58, "unit": "nM"}, {"measurement": "GI50", "setting": "MOLT-4", "value": 285, "unit": "nM"}, {"measurement": "GI50", "setting": "A549/ATCC", "value": 173, "unit": "nM"}, {"measurement": "GI50", "setting": "NCI-H322M", "value": 581, "unit": "nM"}, {"measurement": "GI50", "setting": "COLO 205", "value": 190, "unit": "nM"}, {"measurement": "GI50", "setting": "OVCAR-4", "value": 821, "unit": "nM"}, {"measurement": "GI50", "setting": "SK-OV-3", "value": 506, "unit": "nM"}, {"measurement": "GI50", "setting": "A498", "value": 136, "unit": "nM"}, {"measurement": "GI50", "setting": "ACHN", "value": 728, "unit": "nM"}, {"measurement": "GI50", "setting": "HCT-116", "value": 286, "unit": "nM"}, {"measurement": "GI50", "setting": "HT29", "value": 281, "unit": "nM"}, {"measurement": "GI50", "setting": "SNB-19", "value": 273, "unit": "nM"}, {"measurement": "GI50", "setting": "U251", "value": 144, "unit": "nM"}, {"measurement": "GI50", "setting": "LOX IMVI", "value": 250, "unit": "nM"}, {"measurement": "GI50", "setting": "RXF 393", "value": 134, "unit": "nM"}, {"measurement": "GI50", "setting": "DU-145", "value": 224, "unit": "nM"}, {"measurement": "GI50", "setting": "NCI/ADR-RES", "value": 145, "unit": "nM"}, {"measurement": "GI50 values, level across the tumor cell lines (in words)", "setting": "[1]; NCI 60 tumor panel", "value": "nanomolar to submicromolar levels; also recorded: single or two digit nanomolar levels against 16 tumor cell lines; also recorded: submicromolar levels against 40 tumor cell lines; also recorded: micromolar levels against 3 tumor cell lines"}, {"measurement": "average GI50", "setting": "[1]; requirement for a microtubule-targeting agent, satisfied", "value": "one μM or less"}, {"measurement": "level of expression of p53 (in words)", "setting": "p53", "value": "induced the expression"}, {"measurement": "IC50", "setting": "MCF-7 cells; read-out: Cytotoxicity IC50, MCF-7", "value": "300 ± 160", "unit": "nM"}, {"measurement": "IC50", "setting": "MCF-7 cells; read-out: drug sensitivity (IC50), MCF-7, Table 4", "value": "280 ± 10", "unit": "nM"}, {"measurement": "Resistance (MCF-7/VP relative to MCF-7)", "setting": "MCF-7/VP cells; MRP1", "value": 0.6}, {"measurement": "IC50", "setting": "MCF-7/VP cells; read-out: Cytotoxicity IC50, MCF-7/VP", "value": "250 ± 160", "unit": "nM"}, {"measurement": "IC50", "setting": "MCF-7/VP cells; read-out: drug sensitivity (IC50), MCF-7/VP, Table 4, MRP1 overexpressing", "value": "180 ± 10", "unit": "nM"}]}
